The subject of experiment [1] is Staphylococcus aureus SA-1 (UC-76). Put plainly: Microbroth dilution MIC testing against S. aureus. It is filed as cell-based. The settings on record: S. aureus UC76, CAMHB, 35° C., 16 to 24 hours, read-out: Minimum Inhibitory Concentration S. aureus UC76. As to the method:
(§1) In this example, the in vitro antibacterial activity of selected compounds was determined against S. aureus and H. influenzae. Except for clarifying or modifying statements, MIC testing followed procedures recommended by the NCCLS^1-2 or followed the descriptions cited below.
(§2) Bacterial Cultures At least the following organisms are included in the screen: Staphylococcus aureus SA-1 (UC-76) and H. influenzae HI-3542. Incubations were at 35° C. Stock bacterial cultures were maintained on Tryptic Soy Agar containing 5% Sheep Blood (BD, Becton Dickinson Microbiology Systems, Cockeysville, Md.), anaerobes were maintained on Anaerobic Blood Agar plates—CDC Formulation (BD), and fastidious organisms were maintained on Chocolate Agar II Plates (BD). Specific conditions of handling are listed below.
(§3) Standardized Organism Inocula Frozen stock cultures were used as the initial source of organisms for performing microbroth dilution MIC testing. Stock cultures were passed on their standard growth medium for at least 1 growth cycle (18 24 hours) prior to their use.
(§4) Most bacteria, unless otherwise noted, were prepared directly from agar plates in 10 mL aliquots of the appropriate broth medium. Bacterial cultures were adjusted to the opacity of a 0.5 McFarland Standard (optical density value of 0.28-0.33 on a Perkin-Elmer Lambda EZ150 Spectrophotometer Wellesley, Mass., set at a wavelength of 600 nm).). The adjusted cultures were diluted 400 fold (0.25 mL inoculum+100 mL broth) in growth media to produce a starting suspension of approximately 5×10^5 colony forming units (CFU)/mL. Unless otherwise noted, bacterial strains were tested in cation adjusted Mueller Hinton Broth (CAMHB).
(§5) Test Compound (“Drug”) Preparation Compounds were solubilized in DMSO. Drug stock solutions were prepared on the day of testing. Drugs were weight corrected for assay content where necessary.
(§6) Drug Dilution Tray Preparation Microbroth dilution stock plates were prepared in two dilution series, 64 to 0.06 μg drug/mL and 0.25 to 0.00025 μg drug/mL. For the high concentration series, 200 μL of stock solution (2 mg/mL) was added to duplicate rows of a 96-well microtiter plate. This was used as the first well in the dilution series. Serial two-fold decremental dilutions were made using a BioMek FX robot (Beckman Coulter Inc., Fullerton, Calif.) with 10 of the remaining 11 wells, each of which contained 100 μL of the appropriate solvent/diluent. Row 12 contained solvent/diluent only and served as the control. For tube one of the low concentration series, 200 μL of an 8 μg/mL stock was added to duplicate rows of a 96-well plate. Serial two-fold dilutions were made as described above.
(§7) Daughter plates were spotted (3.2 μL/well) from the stock plates listed above using the BioMek FX robot and were either used immediately or frozen at −70° C. until use.
(§8) Plate Inoculation Aerobic organisms were inoculated (100 μL volumes) into the thawed plates using the BioMek FX robot. The inoculated plates were placed in stacks of no more than 5 and covered with an empty plate. These plates were incubated 16 to 24 hours in ambient atmosphere according to CLSI guidelines^2.
Reading the Test After inoculation and incubation, the degree of bacterial growth was estimated visually with the aid of a Test Reading Mirror (Dynex Technologies 220 16) in a darkened room with a single light shining directly through the top of the microbroth tray. The MIC was the lowest concentration of drug that prevented macroscopically visible growth under the conditions of the test. Testing was performed in duplicate. When the MIC values in duplicate tests varied by 1 well (2 fold), the lower values were reported. If the MICs varied by 2 dilutions, the middle value was reported. Greater than this 4 fold variance called for the test to be repeated, after which a similar determination was applied to all values.
(Dilution methods test growth across graded concentrations, often in twofold steps.)

The test system of experiment [2] is H. influenzae HI-3542. Put plainly: Microbroth dilution MIC testing against H. influenzae. Type of experiment: cell-based. The settings on record: HI3542, H. influenzae 3542, Haemophilus Test Medium, 35° C., 16 to 24 hours, read-out: Minimum Inhibitory Concentration H. influenzae 3542. As to the method:
as §1, §2
Haemophilus was maintained on Chocolate Agar II Plates at room temperature in a candle jar providing a 3 5% CO2 atmosphere.
as §3, §4
Haemophilus influenzae strains were grown on Chocolate Agar II Plates and tested in Haemophilus Test Medium (Remel, Lenexa, Kans.).
as §5, §6, §7, §8
Reading the Test After inoculation and incubation, the degree of bacterial growth was estimated visually with the aid of a Test Reading Mirror (Dynex Technologies 220 16) in a darkened room with a single light shining directly through the top of the microbroth tray. The MIC was the lowest concentration of drug that prevented macroscopically visible growth under the conditions of the test. Testing was performed in duplicate. When the MIC values in duplicate tests varied by 1 well (2 fold), the lower values were reported. If the MICs varied by 2 dilutions, the middle value was reported. […]

Converted amounts (≈) assume the structure as drawn. Bounds are passed on as bounds.

Results on 15 molecules are retold here after US7557100B2, “Antibacterial agents” (Pfizer Inc., priority 2005, dated 2009).

Regarding `COCCOc1c(-c2cnccn2)cc2c(c1F)N1C[C@H](C)O[C@H](C)[C@H]1C1(C2)C(=O)NC(=O)NC1=O` (relative stereo) [Compound 17, rel-(2S,4R,4aR)-10-fluoro-9-(2-methoxyethoxy)-2,4-dimethyl-8-pyrazin-2-yl-1,2,4,4a-tetrahydro-2′H,6H-spiro[1,4-oxazino[4,3-a]quinoline-5,5′-pyrimidine]-2′,4′,6′(1′H,3′H)-trione], the MIC in experiment [1] and in experiment [2] was > 64 µg/mL each time.
Consider `C[C@H]1CN2c3c(cc(-c4cnccn4)c(F)c3F)CC3(C(=O)NC(=O)NC3=O)[C@@H]2[C@@H](C)O1` [Compound 3, (2S,4R,4aR)-9,10-difluoro-2,4-dimethyl-8-pyrazin-2-yl-1,2,4,4a-tetrahydro-2′H,6H-spiro[1,4-oxazino[4,3-a]quinoline-5,5′-pyrimidine]-2′,4′,6′(1′H,3′H)-trione], for which, in experiment [2], the MIC was > 64 µg/mL.
In the case of `C[C@@H]1CN2c3c(cc(-c4cnccn4)c(F)c3F)CC3(C(=O)NC(=O)NC3=O)[C@H]2[C@H](C)O1` [Compound 2, (2R,4S,4aS)-9,10-difluoro-2,4-dimethyl-8-pyrazin-2-yl-1,2,4,4a-tetrahydro-2′H,6H-spiro[1,4-oxazino[4,3-a]quinoline-5,5′-pyrimidine]-2′,4′,6′(1′H,3′H)-trione], the MIC in experiment [1] is 0.125 µg/mL (≈ 0.282 µM); in experiment [2], 0.5 µg/mL (≈ 1.13 µM).
In the case of `C[C@H]1CN2c3c(cc(-c4cnccn4)c(OCCF)c3F)CC3(C(=O)NC(=O)NC3=O)[C@@H]2[C@@H](C)O1` (relative stereo) [Compound 18, rel-(2S,4R,4aR)-10-fluoro-9-(2-fluoroethoxy)-2,4-dimethyl-8-pyrazin-2-yl-1,2,4,4a-tetrahydro-2′H,6H-spiro[1,4-oxazino[4,3-a]quinoline-5,5′-pyrimidine]-2′,4′,6′(1′H,3′H)-trione], the MIC in experiment [1] and in experiment [2] was > 64 µg/mL each time.
For `C[C@@H]1CN2c3c(cc(-c4c[n+]([O-])ccn4)c(F)c3F)CC3(C(=O)NC(=O)NC3=O)[C@H]2[C@H](C)O1` [Compound 6, (2R,4S,4aS)-9,10-difluoro-2,4-dimethyl-8-(4-oxidopyrazinpyrazin-2-yl)-1,2,4,4a-tetrahydro-2′H,6H-spiro[1,4-oxazino[4,3-a]quinoline-5,5′-pyrimidine]-2′,4′,6′(1′H,3′H)-trione], the MIC in experiment [1] was found to be 0.5 µg/mL (≈ 1.09 µM); in experiment [2], 0.25 µg/mL (≈ 0.544 µM).
In the case of `C[C@H]1CN2c3c(cc(-c4cnccn4)c(F)c3F)CC3(C(=O)NC(=O)NC3=O)[C@@H]2[C@@H](C)O1` (relative stereo) [Compound 1, rel-(2S,4R,4aR)-9,10-difluoro-2,4-dimethyl-8-pyrazin-2-yl-1,2,4,4a-tetrahydro-2′H,6H-spiro[1,4-oxazino[4,3-a]quinoline-5,5′-pyrimidine]-2′,4′,6′(1′H,3′H)-trione], the MIC in experiment [2] is 1 µg/mL (≈ 2.26 µM).
`C[C@H]1CN2c3c(cc(-c4cnccn4)c(N4CCOCC4)c3F)CC3(C(=O)NC(=O)NC3=O)[C@@H]2[C@@H](C)O1` (relative stereo) [Compound 16, rel-(2S,4R,4aR)-10-fluoro-2,4-dimethyl-9-morpholin-4-yl-8-pyrazin-2-yl-1,2,4,4a-tetrahydro-2′H,6H-spiro[1,4-oxazino[4,3-a]quinoline-5,5′-pyrimidine]-2′,4′,6′(1′H,3′H)-trione]: the MIC in experiment [1] and in experiment [2] was > 64 µg/mL each time.
Turning to `C[C@@H]1CN2c3c(cc(-c4cnccn4)c(F)c3F)CC3(C(=O)N(CN4CCOCC4)C(=O)N(CN4CCOCC4)C3=O)[C@H]2[C@H](C)O1` [Compound 4, (2R,4S,4aS)-9,10-difluoro-2,4-dimethyl-1′,3′-bis(morpholin-4-ylmethyl)-8-pyrazin-2-yl-1,2,4,4a-tetrahydro-2′H,6H-spiro[1,4-oxazino[4,3-a]quinoline-5,5′-pyrimidine]-2′,4′,6′(1′H,3′H)-trione], the MIC in experiment [1] was 0.25 µg/mL (≈ 0.39 µM); in experiment [2], 0.5 µg/mL (≈ 0.779 µM).
Taken in the same sequence, the figures for `C[C@@H]1CN2c3c(cc(-c4cnc(N)cn4)c(F)c3F)CC3(C(=O)NC(=O)NC3=O)[C@H]2[C@H](C)O1` [Compound 22, (2R,4S,4aS)-8-(5-aminopyrazin-2-yl)-9,10-difluoro-2,4-dimethyl-1,2,4,4a-tetrahydro-2′H,6H-spiro[1,4-oxazino[4,3-a]quinoline-5,5′-pyrimidine]-2′,4′,6′(1′H,3′H)-trione] were 0.5 µg/mL (≈ 1.09 µM) and 0.5 µg/mL (≈ 1.09 µM).
For the molecule `CCOc1cnc(-c2cc3c(c(F)c2F)N2C[C@@H](C)O[C@@H](C)[C@@H]2C2(C3)C(=O)NC(=O)NC2=O)cn1` [Compound 26, (2R,4S,4aS)-8-(5-ethoxypyrazin-2-yl)-9,10-difluoro-2,4-dimethyl-1,2,4,4a-tetrahydro-2′H,6H-spiro[1,4-oxazino[4,3-a]quinoline-5,5′-pyrimidine]-2′,4′,6′(1′H,3′H)-trione], the MIC in experiment [1] is 0.25 µg/mL (≈ 0.513 µM); in experiment [2], 1 µg/mL (≈ 2.05 µM).
On to `C[C@H]1CN2c3ccc(-c4cnccn4)cc3CC3(C(=O)NC(=O)NC3=O)[C@@H]2[C@@H](C)O1` (relative stereo) [Compound 20, rel-(2S,4R,4aR)-2,4-dimethyl-8-pyrazin-2-yl-1,2,4,4a-tetrahydro-2′H,6H-spiro[1,4-oxazino[4,3-a]quinoline-5,5′-pyrimidine]-2′,4′,6′(1′H,3′H)-trione], for which the values for the MIC in experiment [1] and in experiment [2] were 4 µg/mL (≈ 9.82 µM) and 2 µg/mL (≈ 4.91 µM), respectively.
Consider `COc1cnc(-c2cc3c(c(F)c2F)N2C[C@@H](C)O[C@@H](C)[C@@H]2C2(C3)C(=O)NC(=O)NC2=O)cn1` [Compound 25, (2R,4S,4aS)-9,10-difluoro-8-(5-methoxypyrazin-2-yl)-2,4-dimethyl-1,2,4,4a-tetrahydro-2′H,6H-spiro[1,4-oxazino[4,3-a]quinoline-5,5′-pyrimidine]-2′,4′,6′(1′H,3′H)-trione], for which the MIC in experiment [1] worked out at 0.125 µg/mL (≈ 0.264 µM); in experiment [2], 0.5 µg/mL (≈ 1.06 µM).
For the molecule `Cc1cnc(-c2cc3c(c(F)c2F)N2C[C@@H](C)O[C@@H](C)[C@@H]2C2(C3)C(=O)NC(=O)NC2=O)cn1` [Compound 23, (2R,4S,4aS)-9,10-difluoro-2,4-dimethyl-8-(5-methylpyrazin-2-yl)-1,2,4,4a-tetrahydro-2′H,6H-spiro[1,4-oxazino[4,3-a]quinoline-5,5′-pyrimidine]-2′,4′,6′(1′H,3′H)-trione], the figures for the MIC in experiment [1] and in experiment [2] were 0.125 µg/mL (≈ 0.273 µM) and 1 µg/mL (≈ 2.19 µM), respectively.
Taken in the same sequence, the figures for `C[C@H]1CN2c3c(F)cc(-c4cnccn4)cc3CC3(C(=O)NC(=O)NC3=O)[C@@H]2[C@@H](C)O1` (relative stereo) [Compound 15, rel-(2S,4R,4aR)-10-fluoro-2,4-dimethyl-8-pyrazin-2-yl-1,2,4,4a-tetrahydro-2′H,6H-spiro[1,4-oxazino[4,3-a]quinoline-5,5′-pyrimidine]-2′,4′,6′(1′H,3′H)-trione] were 1 µg/mL (≈ 2.35 µM) and 4 µg/mL (≈ 9.4 µM).
Taken in the same sequence, the figures for `C[C@@H]1CN2c3c(cc(-c4cnccn4)c(F)c3F)CC3(C(=O)N(CN4CCN(C)CC4)C(=O)N(CN4CCN(C)CC4)C3=O)[C@H]2[C@H](C)O1` [Compound 5, (2R,4S,4aS)-9,10-difluoro-2,4-dimethyl-1′,3′-bis[(4-methylpiperazin-1-yl)methyl]-8-pyrazin-2-yl-1,2,4,4a-tetrahydro-2′H,6H-spiro[1,4-oxazino[4,3-a]quinoline-5,5′-pyrimidine]-2′,4′,6′(1′H,3′H)-trione] were 0.5 µg/mL (≈ 0.749 µM) and 1 µg/mL (≈ 1.5 µM).
